Laboratory results: patent US10682408B2, “Localized immunosuppression of allografts for peripheral nerve repair” (UNIVERSITY OF WYOMING, priority 2016, dated 2020)

System: DRGs, motor neurons, and Schwann cells
Test: Alamar blue viability assay of PN cells cultured 72 hours with immunosuppressive drugs
Conditions: 72 hours culture, max 1% DMSO
Description: It is contemplated that delivery of immunosuppressive agents function within a favorable therapeutic window. PNs are comprised of three major nervous system cell types, motor neurons, sensory neurons, and Schwann cells. […] FIG. 1B illustrates data regarding the toxicity of tacrolimus to DRGs, motor neurons, and Schwann cells. FIG. 1C illustrates data regarding the toxicity of prednisolone to DRGs, motor neurons, and Schwann cells.
Cells (DRGs, motor neurons, and Schwann cells) were cultured for 72 hours in various concentration of the immunosuppressive drugs and viability was evaluated using the Alamar blue viability assay. ISV's were diluted into media using a maximum of 1% dimethylsulfoxide (DMSO).
Biological material from Sprague Dawley (GFP− and GFP+) and Lewis rats, without any pathological conditions, were utilized to determine the PN allograft methods and materials described herein. Lewis rats were obtained from Charles River Laboratories (Wilmington, Mass.) and Sprague Dawley rats were obtained from Rat Resource and Research Center (Columbia, Mo.). Alzet osmotic pumps (model 1004), commercially available from DURECT Corporation, Cupertino, Calif., were utilized for delivery of immunosuppressive agents to PN allografts.

C[C@]12C=CC(=O)C=C1CC[C@@H]1[C@@H]2[C@@H](O)C[C@@]2(C)[C@H]1CC[C@]2(O)C(=O)CO [prednisolone]
dose tolerated by the cells (up to): up to 200 μM
